Measured values as given in the NIST ThermoML archive (doi:10.1021/acs.jced.8b00132).
Where “and” joins values, the source holds several entries; their conditions need not be identical. Identical values can stand only once. ± gives the expanded uncertainty stated by the source.

O=C(C(F)(F)C(F)(F)F)C(F)(C(F)(F)F)C(F)(F)F [dodecafluoro-2-methylpentan-3-one]
thermal conductivity (432.7 K, 49519 kPa, Liquid, transient hot wire): 0.06451 ± 0.0013 W/m/K
thermal conductivity (432.71 K, 656 kPa, Gas, hot wire): 0.02379 ± 0.0011 W/m/K
thermal conductivity (432.72 K, 1422 kPa, Gas, transient hot wire): 0.02498 ± 0.0016 W/m/K
thermal conductivity (432.72 K, 49517 kPa, Liquid, transient hot wire): 0.06454 ± 0.0013 W/m/K
thermal conductivity (432.77 K, 1418 kPa, Gas, transient hot wire): 0.02496 ± 0.0015 W/m/K
thermal conductivity (432.77 K, 1419 kPa, Gas, transient hot wire): 0.02504 ± 0.0016 W/m/K
thermal conductivity (432.79 K, 1709 kPa, Liquid, transient hot wire): 0.03809 ± 0.00081 W/m/K
thermal conductivity (432.79 K, 34245 kPa, Liquid, transient hot wire): 0.05883 ± 0.0012 W/m/K
thermal conductivity (432.8 K, 1709 kPa, Liquid, transient hot wire): 0.03764 ± 0.0008 W/m/K
thermal conductivity (432.8 K, 1977 kPa, Liquid, transient hot wire): 0.03806 ± 0.0008 W/m/K
thermal conductivity (432.81 K, 652 kPa, Gas, hot wire): 0.02381 ± 0.0011 W/m/K
thermal conductivity (432.81 K, 655 kPa, Gas, hot wire): 0.02367 ± 0.0011 W/m/K
thermal conductivity (432.81 K, 1704 kPa, Liquid, transient hot wire): 0.03807 ± 0.00081 W/m/K
thermal conductivity (432.81 K, 1706 kPa, Liquid, transient hot wire): 0.03761 ± 0.0008 W/m/K
thermal conductivity (432.81 K, 1977 kPa, Liquid, transient hot wire): 0.03794 ± 0.0008 W/m/K
thermal conductivity (432.81 K, 22767 kPa, Liquid, transient hot wire): 0.05368 ± 0.0011 W/m/K
thermal conductivity (432.82 K, 375 kPa, Gas, hot wire): 0.02254 ± 0.0011 W/m/K
thermal conductivity (432.83 K, 376 kPa, Gas, hot wire): 0.02257 ± 0.0011 W/m/K
thermal conductivity (432.83 K, 22777 kPa, Liquid, transient hot wire): 0.05369 ± 0.0011 W/m/K
thermal conductivity (432.84 K, 2631 kPa, Liquid, transient hot wire): 0.03896 ± 0.00082 W/m/K
thermal conductivity (432.84 K, 49496 kPa, Liquid, transient hot wire): 0.06439 ± 0.0013 W/m/K
thermal conductivity (432.84 K, 49505 kPa, Liquid, transient hot wire): 0.06438 ± 0.0013 W/m/K
thermal conductivity (432.86 K, 2631 kPa, Liquid, transient hot wire): 0.03897 ± 0.00082 W/m/K
thermal conductivity (432.87 K, 158 kPa, Gas, hot wire): 0.02102 ± 0.00099 W/m/K
thermal conductivity (432.87 K, 159 kPa, Gas, hot wire): 0.02111 ± 0.00099 W/m/K
thermal conductivity (432.87 K, 3941 kPa, Liquid, transient hot wire): 0.04063 ± 0.00085 W/m/K
thermal conductivity (432.88 K, 1297 kPa, Gas, transient hot wire): 0.02344 ± 0.00079 W/m/K
thermal conductivity (432.88 K, 1298 kPa, Gas, transient hot wire): 0.02358 ± 0.00079 W/m/K
thermal conductivity (432.88 K, 1418 kPa, Gas, transient hot wire): 0.02521 ± 0.0016 W/m/K
thermal conductivity (432.9 K, 43 kPa, Gas, hot wire): 0.02081 ± 0.00098 W/m/K
thermal conductivity (432.9 K, 650 kPa, Gas, hot wire): 0.02367 ± 0.0011 W/m/K
thermal conductivity (432.91 K, 42 kPa, Gas, hot wire): 0.02089 ± 0.00098 W/m/K
thermal conductivity (432.93 K, 374 kPa, Gas, hot wire): 0.02268 ± 0.0011 W/m/K
thermal conductivity (432.93 K, 375 kPa, Gas, hot wire): 0.02269 ± 0.0011 W/m/K
thermal conductivity (432.93 K, 1976 kPa, Liquid, transient hot wire): 0.03821 ± 0.00081 W/m/K
thermal conductivity (432.93 K, 34232 kPa, Liquid, transient hot wire): 0.05866 ± 0.0012 W/m/K
thermal conductivity (432.93 K, 34243 kPa, Liquid, transient hot wire): 0.05865 ± 0.0012 W/m/K
thermal conductivity (432.94 K, 1977 kPa, Liquid, transient hot wire): 0.03807 ± 0.0008 W/m/K
thermal conductivity (432.95 K, 1709 kPa, Liquid, transient hot wire): 0.03814 ± 0.00081 W/m/K
thermal conductivity (432.98 K, 22754 kPa, Liquid, transient hot wire): 0.05357 ± 0.0011 W/m/K
thermal conductivity (432.98 K, 49470 kPa, Liquid, transient hot wire): 0.06431 ± 0.0013 W/m/K
thermal conductivity (432.99 K, 157 kPa, Gas, hot wire): 0.02107 ± 0.00099 W/m/K and 0.02099 ± 0.00099 W/m/K
thermal conductivity (432.99 K, 1298 kPa, Gas, transient hot wire): 0.02366 ± 0.00079 W/m/K
thermal conductivity (433 K, 1299 kPa, Gas, transient hot wire): 0.02363 ± 0.00079 W/m/K
thermal conductivity (433 K, 6150 kPa, Liquid, transient hot wire): 0.04309 ± 0.0009 W/m/K
thermal conductivity (433 K, 15091 kPa, Liquid, transient hot wire): 0.04962 ± 0.001 W/m/K
thermal conductivity (433 K, 15095 kPa, Liquid, transient hot wire): 0.04957 ± 0.001 W/m/K
thermal conductivity (433.01 K, 43 kPa, Gas, hot wire): 0.02102 ± 0.00099 W/m/K and 0.02104 ± 0.00099 W/m/K
thermal conductivity (433.02 K, 647 kPa, Gas, hot wire): 0.02339 ± 0.0011 W/m/K
thermal conductivity (433.02 K, 648 kPa, Gas, hot wire): 0.02337 ± 0.0011 W/m/K
thermal conductivity (433.02 K, 6152 kPa, Liquid, transient hot wire): 0.04303 ± 0.0009 W/m/K
thermal conductivity (433.03 K, 3941 kPa, Liquid, transient hot wire): 0.04082 ± 0.00086 W/m/K
thermal conductivity (433.04 K, 373 kPa, Gas, hot wire): 0.02274 ± 0.0011 W/m/K
thermal conductivity (433.04 K, 2629 kPa, Liquid, transient hot wire): 0.03906 ± 0.00082 W/m/K
thermal conductivity (433.04 K, 2631 kPa, Liquid, transient hot wire): 0.03946 ± 0.00083 W/m/K
thermal conductivity (433.05 K, 372 kPa, Gas, hot wire): 0.02268 ± 0.0011 W/m/K
thermal conductivity (433.05 K, 3942 kPa, Liquid, transient hot wire): 0.04075 ± 0.00085 W/m/K
thermal conductivity (433.08 K, 34226 kPa, Liquid, transient hot wire): 0.05871 ± 0.0012 W/m/K
thermal conductivity (433.08 K, 34233 kPa, Liquid, transient hot wire): 0.05874 ± 0.0012 W/m/K
thermal conductivity (433.11 K, 155 kPa, Gas, hot wire): 0.02111 ± 0.00099 W/m/K
thermal conductivity (433.12 K, 156 kPa, Gas, hot wire): 0.02101 ± 0.00099 W/m/K
thermal conductivity (433.12 K, 646 kPa, Gas, hot wire): 0.02323 ± 0.0011 W/m/K
thermal conductivity (433.12 K, 9670 kPa, Liquid, transient hot wire): 0.04595 ± 0.00096 W/m/K
thermal conductivity (433.12 K, 9671 kPa, Liquid, transient hot wire): 0.04584 ± 0.00096 W/m/K
thermal conductivity (433.12 K, 49466 kPa, Liquid, transient hot wire): 0.06434 ± 0.0013 W/m/K
thermal conductivity (433.13 K, 43 kPa, Gas, hot wire): 0.02102 ± 0.00099 W/m/K
thermal conductivity (433.13 K, 644 kPa, Gas, hot wire): 0.02306 ± 0.0011 W/m/K
thermal conductivity (433.13 K, 22732 kPa, Liquid, transient hot wire): 0.05371 ± 0.0011 W/m/K
thermal conductivity (433.13 K, 22752 kPa, Liquid, transient hot wire): 0.05367 ± 0.0011 W/m/K
thermal conductivity (433.13 K, 49459 kPa, Liquid, transient hot wire): 0.06442 ± 0.0013 W/m/K
thermal conductivity (433.14 K, 43 kPa, Gas, hot wire): 0.02099 ± 0.00098 W/m/K
thermal conductivity (433.14 K, 1300 kPa, Gas, transient hot wire): 0.02391 ± 0.00081 W/m/K
thermal conductivity (433.16 K, 372 kPa, Gas, hot wire): 0.02272 ± 0.0011 W/m/K and 0.02276 ± 0.0011 W/m/K
thermal conductivity (433.16 K, 15084 kPa, Liquid, transient hot wire): 0.04944 ± 0.001 W/m/K
thermal conductivity (433.19 K, 6155 kPa, Liquid, transient hot wire): 0.04297 ± 0.0009 W/m/K
thermal conductivity (433.19 K, 6159 kPa, Liquid, transient hot wire): 0.04336 ± 0.00091 W/m/K
thermal conductivity (433.19 K, 15094 kPa, Liquid, transient hot wire): 0.04947 ± 0.001 W/m/K
thermal conductivity (433.21 K, 1138 kPa, Gas, transient hot wire): 0.02265 ± 0.00075 W/m/K and 0.02278 ± 0.00075 W/m/K
thermal conductivity (433.24 K, 155 kPa, Gas, hot wire): 0.02111 ± 0.00099 W/m/K
thermal conductivity (433.24 K, 1299 kPa, Gas, transient hot wire): 0.02422 ± 0.00082 W/m/K
thermal conductivity (433.24 K, 3943 kPa, Liquid, transient hot wire): 0.04078 ± 0.00086 W/m/K
thermal conductivity (433.24 K, 3944 kPa, Liquid, transient hot wire): 0.04039 ± 0.00085 W/m/K
thermal conductivity (433.24 K, 34207 kPa, Liquid, transient hot wire): 0.05868 ± 0.0012 W/m/K
thermal conductivity (433.24 K, 34211 kPa, Liquid, transient hot wire): 0.05857 ± 0.0012 W/m/K
